These results are taken from patent publication US11739098B2 (BRISTOL-MYERS SQUIBB COMPANY, priority 2017, dated 2023).

Where only a bound is given, the exact number is not on record here.

Type in all cases: cell-based
For one test, the target named is T1, human TLR7 (Homo sapiens, UniProt Q9NYK1).
T1 construct: host or cells: HEK-Blue cells (HEK293-derived reporter line)
T1 sequence (Q9NYK1 27-1049): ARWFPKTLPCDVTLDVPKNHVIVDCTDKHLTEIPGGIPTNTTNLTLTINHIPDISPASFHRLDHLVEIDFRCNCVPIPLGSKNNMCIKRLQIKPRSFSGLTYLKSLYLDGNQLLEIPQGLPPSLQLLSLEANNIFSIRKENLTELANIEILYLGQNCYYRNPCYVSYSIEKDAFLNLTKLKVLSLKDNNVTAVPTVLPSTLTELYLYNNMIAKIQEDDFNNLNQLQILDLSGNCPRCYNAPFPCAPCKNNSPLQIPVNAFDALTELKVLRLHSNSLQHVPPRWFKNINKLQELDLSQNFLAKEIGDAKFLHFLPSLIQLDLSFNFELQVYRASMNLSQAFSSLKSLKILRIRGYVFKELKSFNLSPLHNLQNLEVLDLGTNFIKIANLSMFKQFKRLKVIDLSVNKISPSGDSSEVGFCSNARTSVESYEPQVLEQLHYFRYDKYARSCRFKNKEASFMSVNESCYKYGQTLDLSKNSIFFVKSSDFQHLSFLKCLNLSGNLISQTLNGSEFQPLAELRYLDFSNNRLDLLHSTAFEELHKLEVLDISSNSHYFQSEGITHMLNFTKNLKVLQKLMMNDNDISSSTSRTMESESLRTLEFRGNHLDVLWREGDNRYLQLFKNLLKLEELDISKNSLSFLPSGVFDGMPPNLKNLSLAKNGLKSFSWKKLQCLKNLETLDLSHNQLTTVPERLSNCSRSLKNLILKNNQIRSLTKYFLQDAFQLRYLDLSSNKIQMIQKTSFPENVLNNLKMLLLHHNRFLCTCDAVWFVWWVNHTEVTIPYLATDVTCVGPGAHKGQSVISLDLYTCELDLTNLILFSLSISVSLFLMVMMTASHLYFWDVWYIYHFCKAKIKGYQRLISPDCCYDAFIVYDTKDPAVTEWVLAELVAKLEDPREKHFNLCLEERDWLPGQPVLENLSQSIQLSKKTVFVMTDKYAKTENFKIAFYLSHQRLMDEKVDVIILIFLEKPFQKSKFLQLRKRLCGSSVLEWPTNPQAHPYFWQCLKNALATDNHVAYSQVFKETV
The test is described as follows: TLR7 inhibition reporter assay (HEK-Blue cells, SEAP reporter, gardiquimod stimulation). The following applies: HEK-Blue cells overexpressing human TLR7, SEAP reporter, gardiquimod 7.5 μM. The procedure, abridged: (§1)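 After 22 h at 37 °C, SEAP secretion was measured from human TLR7-, TLR8- or TLR9-expressing HEK-Blue reporter cells given compound (0.05 nM–50 μM) 30 min before agonist: 7.5 μM gardiquimod, 15.9 μM R848 or 5 nM ODN2006 respectively. Percent inhibition referenced to agonist-plus-DMSO and known-inhibitor wells.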

The next test addresses T2, human TLR8 (Homo sapiens, UniProt Q9NR97).
T2 construct: host or cells: HEK-Blue cells (HEK293-derived reporter line)
T2 sequence (Q9NR97 27-1041): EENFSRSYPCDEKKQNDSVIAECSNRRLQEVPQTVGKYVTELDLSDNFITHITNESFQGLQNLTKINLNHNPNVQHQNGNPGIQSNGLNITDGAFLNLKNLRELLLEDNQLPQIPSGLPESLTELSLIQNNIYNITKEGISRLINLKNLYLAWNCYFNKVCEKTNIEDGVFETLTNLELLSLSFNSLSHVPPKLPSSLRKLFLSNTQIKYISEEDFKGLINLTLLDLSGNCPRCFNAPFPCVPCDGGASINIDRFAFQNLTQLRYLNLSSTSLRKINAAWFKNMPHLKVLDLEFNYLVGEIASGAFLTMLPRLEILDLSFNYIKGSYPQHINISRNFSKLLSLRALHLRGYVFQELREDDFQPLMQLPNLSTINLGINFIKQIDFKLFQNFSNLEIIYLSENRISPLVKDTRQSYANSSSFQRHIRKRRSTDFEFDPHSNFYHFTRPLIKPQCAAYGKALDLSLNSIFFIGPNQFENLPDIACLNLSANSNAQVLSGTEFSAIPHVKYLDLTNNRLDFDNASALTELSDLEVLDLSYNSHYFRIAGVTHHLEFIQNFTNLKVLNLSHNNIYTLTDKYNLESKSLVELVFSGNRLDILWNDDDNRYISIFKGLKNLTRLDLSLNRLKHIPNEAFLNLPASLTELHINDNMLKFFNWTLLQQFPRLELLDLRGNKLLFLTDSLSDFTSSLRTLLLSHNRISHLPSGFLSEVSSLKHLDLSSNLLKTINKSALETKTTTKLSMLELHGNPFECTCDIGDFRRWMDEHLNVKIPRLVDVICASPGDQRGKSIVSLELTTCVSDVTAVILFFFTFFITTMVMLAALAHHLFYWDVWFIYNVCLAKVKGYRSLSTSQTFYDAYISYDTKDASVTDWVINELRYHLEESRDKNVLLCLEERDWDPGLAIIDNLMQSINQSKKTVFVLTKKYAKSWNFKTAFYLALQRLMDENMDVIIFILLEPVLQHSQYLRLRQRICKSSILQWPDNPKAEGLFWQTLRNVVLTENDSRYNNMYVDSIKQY
The test is described as follows: TLR8 inhibition reporter assay (HEK-Blue cells, SEAP reporter, R848 stimulation). The following applies: HEK-Blue cells overexpressing human TLR8, SEAP reporter, R848 15.9 μM. The gist of the method: as §1

The target in a further test is T3, human TLR9 (Homo sapiens, UniProt Q9NR96).
T3 construct: host or cells: HEK-Blue cells (HEK293-derived reporter line)
T3 sequence (Q9NR96 26-1032): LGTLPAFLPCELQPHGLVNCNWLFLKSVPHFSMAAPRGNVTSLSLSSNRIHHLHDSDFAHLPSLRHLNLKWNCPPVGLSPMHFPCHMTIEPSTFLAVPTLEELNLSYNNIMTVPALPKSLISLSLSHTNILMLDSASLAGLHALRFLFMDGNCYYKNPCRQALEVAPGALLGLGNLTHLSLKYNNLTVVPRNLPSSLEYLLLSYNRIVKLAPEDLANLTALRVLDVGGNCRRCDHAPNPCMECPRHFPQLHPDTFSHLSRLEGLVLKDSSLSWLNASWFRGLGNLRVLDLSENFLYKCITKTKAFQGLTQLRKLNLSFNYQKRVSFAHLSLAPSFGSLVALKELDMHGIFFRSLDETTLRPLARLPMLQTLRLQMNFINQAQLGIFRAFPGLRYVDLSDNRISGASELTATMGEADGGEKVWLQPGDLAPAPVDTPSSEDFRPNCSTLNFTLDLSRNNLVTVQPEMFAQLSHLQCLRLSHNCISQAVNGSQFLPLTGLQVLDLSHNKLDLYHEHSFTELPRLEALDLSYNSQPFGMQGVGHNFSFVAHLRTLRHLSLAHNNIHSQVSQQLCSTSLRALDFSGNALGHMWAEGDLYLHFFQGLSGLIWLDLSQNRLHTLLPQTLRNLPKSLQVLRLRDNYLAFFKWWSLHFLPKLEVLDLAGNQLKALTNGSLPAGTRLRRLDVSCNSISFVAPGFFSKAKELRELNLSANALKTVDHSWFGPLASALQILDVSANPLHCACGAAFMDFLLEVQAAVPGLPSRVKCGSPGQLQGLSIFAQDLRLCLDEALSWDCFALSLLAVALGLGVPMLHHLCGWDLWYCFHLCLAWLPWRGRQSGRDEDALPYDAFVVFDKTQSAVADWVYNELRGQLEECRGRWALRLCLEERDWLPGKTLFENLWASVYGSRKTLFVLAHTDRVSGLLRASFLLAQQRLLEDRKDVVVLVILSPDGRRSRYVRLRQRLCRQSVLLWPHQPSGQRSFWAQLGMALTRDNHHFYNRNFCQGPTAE
The test is described as follows: TLR9 inhibition reporter assay (HEK-Blue cells, SEAP reporter, ODN2006 stimulation). The conditions noted are these: HEK-Blue cells overexpressing human TLR9, SEAP reporter, ODN2006 5 nM. The gist of the method:
as §1

Regarding `CCc1c(-c2ccnc3[nH]cc(C(C)C)c23)[nH]c2ccc(C3CCNCC3)cc12` [Example 221, 4-(3-ethyl-5-(piperidin-4-yl)-1H-indol-2-yl)-3-isopropyl-1H-pyrrolo[2,3-b]pyridine], the IC50 against human TLR7 was 100 to 1000 nM; on human TLR8 it was 1000 to 50000 nM; against human TLR9 it was 100 to 1000 nM.

On to `CNC(=O)CN1CCC(c2ccc3[nH]c(-c4cn5cc(C)nc5cc4C)c(C(C)C)c3c2)CC1` [Example 374, 2-(4-(2-(2,7-dimethylimidazo[1,2-a]pyridin-6-yl)-3-isopropyl-1H-indol-5-yl)piperidin-1-yl)-N-methylacetamide], for which the IC50 is less than 100 nM against human TLR7, 100 to 1000 nM against human TLR8 and 100 to 1000 nM against human TLR9.

Take `CC(C)c1c(-c2ccc3ncnn3n2)[nH]c2ccc(C3CCN(CC(=O)N(C)C)CC3)cc12` [Example 278, 2-(4-(2-([1,2,4]triazolo[1,5-b]pyridazin-6-yl)-3-isopropyl-1H-indol-5-yl)piperidin-1-yl)-N,N-dimethylacetamide]: the IC50 against human TLR7 is less than 100 nM; against human TLR8, less than 100 nM; at human TLR9, 1000 to 50000 nM.

Turning to `CCc1c(-c2ccnc3[nH]ccc23)[nH]c2ccc(C3CCN(C4CC(C)(C)NC(C)(C)C4)CC3)cc12` [Example 838, 4-(3-ethyl-5-(2′,2′,6′,6′-tetramethyl-[1,4′-bipiperidin]-4-yl)-1H-indol-2-yl)-1H-pyrrolo[2,3-b]pyridine], the figures for the IC50 at human TLR7, against human TLR8 and against human TLR9 were less than 100 nM, less than 100 nM and 100 to 1000 nM, respectively.

In the case of `Cc1cc(-c2[nH]c3ccc(C4CCNCC4)cc3c2C(C)C)cc2ncnn12` [Example 154, 7-(3-isopropyl-5-(piperidin-4-yl)-1H-indol-2-yl)-5-methyl-[1,2,4]triazolo[1,5-a]pyridine], the concentration for half-maximal inhibition (IC50) was less than 100 nM at human TLR7, less than 100 nM at human TLR8 and 1000 to 50000 nM on human TLR9.

For `CC(C)c1c(-c2ccc3ncnn3n2)[nH]c2ccc(C3CCNCC3)cc12` [Example 242, 6-(3-isopropyl-5-(piperidin-4-yl)-1H-indol-2-yl)-[1,2,4]triazolo[1,5-b]pyridazine], the IC50 is less than 100 nM against human TLR7, less than 100 nM at human TLR8 and 1000 to 50000 nM against human TLR9.

As to `Cc1nc2cc(-c3[nH]c4ccc(C5CCN(CC(=O)N(C)C)CC5)cc4c3C(C)C)ccn2n1` [Example 326, 2-(4-(3-isopropyl-2-(2-methyl-[1,2,4]triazolo[1,5-a]pyridin-7-yl)-1H-indol-5-yl)piperidin-1-yl)-N,N-dimethylacetamide], the IC50 at human TLR7 was less than 100 nM; against human TLR8 it was 100 to 1000 nM; against human TLR9 it was 1000 to 50000 nM.

In the case of `Cc1ccc(-c2[nH]c3ccc(C4CCN(C(=O)C[C@H](C)O)CC4)cc3c2C(C)C)c2ncnn12` [Example 599, (S)-3-hydroxy-1-(4-(3-isopropyl-2-(5-methyl-[1,2,4]triazolo[1,5-a]pyridin-8-yl)-1H-indol-5-yl)piperidin-1-yl)butan-1-one], the IC50 was 100 to 1000 nM against human TLR7, 100 to 1000 nM on human TLR8 and 1000 to 50000 nM on human TLR9.

`CCc1c(-c2ccc3nccn3c2)[nH]c2cc(F)c(C3CCNCC3)c(F)c12` [Example 257, 6-(3-ethyl-4,6-difluoro-5-(piperidin-4-yl)-1H-indol-2-yl)imidazo[1,2-a]pyridine]: the IC50 against human TLR7, against human TLR8 and on human TLR9 was less than 100 nM in each case.

In the case of `CCc1c(-c2ccnc3[nH]ncc23)[nH]c2ccc(C3CCN(C(=O)CNC)CC3)cc12` [Example 462, 1-(4-(3-ethyl-2-(1H-pyrazolo [3,4-b]pyridin-4-yl)-1H-indol-5-yl)piperidin-1-yl)-2-(methylamino)ethan-1-one], the IC50 against human TLR7 was less than 100 nM; against human TLR8, less than 100 nM; on human TLR9, 1000 to 50000 nM.

Consider `CNC(=O)CN1CCC(c2ccc3[nH]c(-c4ccn5nc(C)nc5c4)c(C(C)C)c3c2)CC1` [Example 331, 2-(4-(3-isopropyl-2-(2-methyl-[1,2,4]triazolo[1,5-a]pyridin-7-yl)-1H-indol-5-yl)piperidin-1-yl)-N-methylacetamide], for which the IC50 on human TLR7 is less than 100 nM; on human TLR8, 1000 to 50000 nM; against human TLR9, 1000 to 50000 nM.

For `Cc1cc(-c2[nH]c3ccc(C4CCNCC4)cc3c2C(C)C)cn2c(C)cnc12` [Example 121, 6-(3-isopropyl-5-(piperidin-4-yl)-1H-indol-2-yl)-3,8-dimethylimidazo[1,2-a]pyridine], the IC50 on human TLR7 is less than 100 nM; on human TLR8 it was 1000 to 50000 nM; at human TLR9 it was 1000 to 50000 nM.

Consider `CNC(=O)CN1CCC(c2ccc3[nH]c(-c4cc(F)c5nccn5c4)c(C(C)C)c3c2)CC1` [Example 410, 2-(4-(2-(8-fluoroimidazo[1,2-a]pyridin-6-yl)-3-isopropyl-1H-indol-5-yl)piperidin-1-yl)-N-methylacetamide], for which the figures for the IC50 at human TLR7, against human TLR8 and against human TLR9 were less than 100 nM, 100 to 1000 nM and 1000 to 50000 nM, respectively.
